Data reported in patent US20080108645A1, “Dihydrotetrabenazines And Pharmaceutical Compositions Containing Them” (CAMBRIDGE LABORATORIES, (IRELAND), LTD., priority 2004, published 2008).
“Also recorded” adds a separate entry of the source.

Key:
Sigma σ1 Receptor = target: T1, Sigma σ1 Receptor (Homo sapiens, UniProt Q99720); experiment: Sigma σ1 receptor radioligand binding; conditions: 10 μM; 8 nM [3H] Haloperidol
T1 construct: Source: Human jurkat cells; endogenous in cells; host or cells: Jurkat cells
Experimental: (§1) (a) Adrenergic α2A Receptor: • Reference: S. Uhlen et al. J. Pharmacol. Exp. Ther., 271:1558-1565 (1994) • Source: Human recombinant insect Sf9 cells • Ligand: 1 nM [^3H] […] J. Pharmacol., 99:803-809, (1990) • Source: Wistar rat cerebral cortex • Ligand: 2 nM [3H]

Human HEK-293 cells = experiment: Cellular assay: inhibition of [3H] serotonin uptake by human embryonic kidney cells; format: cell-based; conditions: for inhibition at 10 µM: Homo sapiens, HEK293
Experimental: The ability of isomers B and C to inhibit uptake of serotonin (5-hydroxytryptamine) by human embryonic kidney cells was measured using the following assay conditions: […]

Dopamine D3 Receptor = target: T2, Dopamine D3 Receptor (Homo sapiens, UniProt P35462); experiment: Dopamine D3 receptor radioligand binding; conditions: 10 μM; 0.7 nM [3H] Spiperone
T2 construct: expressed in transfected cells; host or cells: CHO cells
Experimental: as §1

[1] = target: T3, Serotonin Transporter (SERT) (Homo sapiens, UniProt P31645); experiment: Serotonin transporter (SERT) radioligand binding; conditions: for IC50 / Percentage Inhibition of Specific Binding, SERT: 0.15 nM [125I] RTI-55; for IC50: read-out: IC50 value (in parentheses), SERT; for Percentage Inhibition of Specific Binding, SERT: 10 μM
T3 construct: expressed in transfected cells; host or cells: HEK-293 cells
Experimental: as §1

5-HT1D/1B receptors = experiment: 5-HT1D/1B binding assay, [N-methyl 3H] GR-125743, rat forebrain P2 membranes
Experimental: The ability of Compound B and Compound C to bind to 5-HT1D/1B receptors was tested using an assay based on the one described by Millan, M J et al. (2002) Pharmacol. Biochem. Behav. […] [N-methyl ^3H] GR-125743 was used as the radioligand for both 5-HT1D and 5-HT1B receptors. Adult SD rat forebrain P2 membranes (Chazot et al., 1993) were used for the assay. The assay buffer used was 50 mM Tris-HCl pH 7.7 at room temperature containing 4 mM calcium chloride, 0.1% ascorbic acid and 10 μM pargyline. 5-HT (10 μM) was used to define non-specific binding. Incubation with 1 nM [^3H] GR-125743 was carried out for 1 hour at room temperature, and the reaction was terminated by rapid filtration using a Brandel Harvester through GF/B filters pre-soaked in 0.1% polyethyleneimine, followed by three washes with ice-cold buffer (supplemented with 0.1% BSA). A dose range of 10^−10-10^−4M was utilised. The resultant competition curves were analysed using the GraphPad Prism 4 package.

Male Sprague-Dawley rats = experiment: Spontaneous locomotor activity in rats (sedative properties); format: in vivo, rat; conditions: for sedative effect (in words): 0.3-10 mg/kg i.p., 45 minutes and 3 hours after administration
Experimental: A study was carried out in rats to determine whether the dihydrotetrabenazine isomers of the invention have sedative properties. The effects of the isomers on spontaneous locomotor activity in rats were compared with the effects produced by tetrabenazine and haloperidol using the methods set out below.
Male Sprague-Dawley rats, (Charles River Laboratories, Saint-Germain/L'Arbresle, France), weighing 200-250 g at the beginning of the study, were used for the studies. The rats were housed, 2 or 3 per cage, in Makrolon type III cages, in a room set up with the following environmental conditions: temperature: 20±2° C., humidity: minimum 45%, air changes: >12 per hour, light/dark cycle of 12 h/12 h [on at 7:00 a.m.]. The rats were allowed to acclimatize to their conditions for at least five days before commencement of the study. The rats received food (Dietex, Vigny, France, ref. 811002) and water (tap water in water bottle) ad libitum.
Solutions of each test compound in corn oil were freshly prepared on the day of the experiment. Haloperidol was prepared in hydroxyethylcellulose, 0.5% in deionized water. Either the vehicle or the test compounds were administered as a single dose (0.3, 1, 3 and 10 mg/kg, 2 mL/kg i.p.). The reference compound haloperidol (1 mg/kg) was administered i.p. (2 mL/kg).
The animals were placed in plexiglass cages under a video camera in a room with low light intensity (maximum 50 lux). At forty five minutes and 3 hours after administration, locomotor activity was determined during 20 minute periods using a video image analyzer (Videotrack, View Point, France). Locomotor activity was recorded in the reference group (haloperidol) at 1 hour after administration. The number and duration of ambulatory movements and duration of inactivity was measured. At the end of the locomotor activity measurement (45 minutes and 3 hours), palpebral closure and arousal were be scored as follows in the plexiglass cage:
The number of occurrences and duration (in seconds) of ambulatory (large) movements and the duration of periods of inactivity (seconds) was determined during two 20 minute periods (45 minutes and 3 hours after administration) using a video image analyzer (Videotrack, ViewPoint, Lyon, France). Image tracking was performed using a video camera placed above the plexiglass cage, recording overall locomotor activity. Images recorded with the video camera were digitalized and displacement of the centre of gravity of the digital image spots was tracked and analyzed using the following method: the speed of displacement of the centre of gravity of the spot was measured and two threshold values were set to define the type of movement: threshold 1 (high speed) and threshold 2 (low speed). When the animal moved and the speed of displacement of the centre of gravity of the spot was above threshold 1, the movement was considered as an ambulatory movement.
The results were expressed as the means±SEMs of the 12 individual values. Statistical analyses were carried out using ANOVA (one way) and Dunnett's t-test and with the non parametric test of Kruskal-Wallis followed by a Mann & Whitney U-test for the sedation cotation. A p value of p<0.05 was taken as indicating significance.

Dopamine D1 Receptor = target: T4, Dopamine D1 Receptor (Homo sapiens, UniProt P21728); experiment: Dopamine D1 receptor radioligand binding; conditions: 10 μM; 1.4 nM [3H] SCH-23390
T4 construct: expressed in transfected cells; host or cells: CHO cells
Experimental: as §1

[2] = 0.3 mg/kg i.p., 45 minutes after administration
[3] = 0.3 mg/kg i.p., 3 hours after administration
[4] = 1 mg/kg i.p., 45 minutes after administration
[5] = 1 mg/kg i.p., 3 hours after administration
[6] = 3 mg/kg i.p., 45 minutes after administration
[7] = 3 mg/kg i.p., 3 hours after administration
[8] = 10 mg/kg i.p., 45 minutes after administration
[9] = 10 mg/kg i.p., 3 hours after administration

T3 sequence (P31645 whole entry): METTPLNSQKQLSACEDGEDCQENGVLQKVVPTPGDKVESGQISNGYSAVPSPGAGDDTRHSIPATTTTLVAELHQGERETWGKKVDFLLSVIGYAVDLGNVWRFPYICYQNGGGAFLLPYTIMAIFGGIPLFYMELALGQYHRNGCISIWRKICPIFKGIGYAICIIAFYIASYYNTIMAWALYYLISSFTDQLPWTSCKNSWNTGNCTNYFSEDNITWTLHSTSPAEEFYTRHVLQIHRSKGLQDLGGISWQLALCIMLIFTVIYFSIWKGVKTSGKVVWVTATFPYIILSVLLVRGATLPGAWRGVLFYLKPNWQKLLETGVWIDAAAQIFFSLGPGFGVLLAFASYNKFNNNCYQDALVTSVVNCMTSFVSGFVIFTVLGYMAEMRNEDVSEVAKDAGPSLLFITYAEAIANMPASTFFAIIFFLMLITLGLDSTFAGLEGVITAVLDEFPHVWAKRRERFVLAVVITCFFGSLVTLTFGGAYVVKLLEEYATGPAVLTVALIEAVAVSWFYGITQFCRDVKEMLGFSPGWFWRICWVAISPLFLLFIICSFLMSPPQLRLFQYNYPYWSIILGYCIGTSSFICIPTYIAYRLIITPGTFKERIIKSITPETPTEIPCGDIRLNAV
T2 sequence (P35462 whole entry): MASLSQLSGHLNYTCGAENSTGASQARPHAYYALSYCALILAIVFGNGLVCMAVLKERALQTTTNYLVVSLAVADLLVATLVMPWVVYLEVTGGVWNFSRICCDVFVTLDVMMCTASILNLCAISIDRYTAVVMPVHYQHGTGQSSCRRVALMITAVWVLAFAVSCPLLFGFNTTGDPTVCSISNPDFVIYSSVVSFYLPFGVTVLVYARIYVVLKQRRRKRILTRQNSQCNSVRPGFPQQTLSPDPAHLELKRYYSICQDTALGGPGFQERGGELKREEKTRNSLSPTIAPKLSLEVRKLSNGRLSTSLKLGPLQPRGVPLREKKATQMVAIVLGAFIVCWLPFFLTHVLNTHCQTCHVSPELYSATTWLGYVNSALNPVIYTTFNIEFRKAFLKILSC
T4 sequence (P21728 whole entry): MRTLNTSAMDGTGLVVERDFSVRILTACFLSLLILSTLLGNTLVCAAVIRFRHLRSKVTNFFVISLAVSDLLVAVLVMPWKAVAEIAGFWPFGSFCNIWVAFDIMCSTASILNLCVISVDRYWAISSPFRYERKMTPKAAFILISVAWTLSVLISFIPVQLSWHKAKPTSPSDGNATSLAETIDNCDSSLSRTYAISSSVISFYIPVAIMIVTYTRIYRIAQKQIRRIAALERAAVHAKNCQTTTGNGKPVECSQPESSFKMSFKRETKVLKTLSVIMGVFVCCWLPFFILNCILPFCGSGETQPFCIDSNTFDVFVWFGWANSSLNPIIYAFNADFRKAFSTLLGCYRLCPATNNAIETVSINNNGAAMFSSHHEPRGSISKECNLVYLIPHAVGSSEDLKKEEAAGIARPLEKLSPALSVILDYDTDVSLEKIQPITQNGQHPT
T1 sequence (Q99720 whole entry): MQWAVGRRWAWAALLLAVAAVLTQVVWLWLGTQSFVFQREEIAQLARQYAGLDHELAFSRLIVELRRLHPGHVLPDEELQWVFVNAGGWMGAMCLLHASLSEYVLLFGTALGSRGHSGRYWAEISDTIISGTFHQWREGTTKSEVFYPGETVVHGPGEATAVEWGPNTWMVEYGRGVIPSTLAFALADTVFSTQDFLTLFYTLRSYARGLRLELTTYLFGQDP

Structure (SMILES)	Percentage Inhibition of Specific Binding, σ1 Receptor (Sigma σ1 Receptor) [%]	mode of action on serotonin uptake (in words) (Human HEK-293 cells)	inhibition at 10 µM (Human HEK-293 cells) [%]	Percentage Inhibition of Specific Binding, D3 Receptor (Dopamine D3 Receptor) [%]	inhibition of SERT (in words) [1]	IC50 [1] [µM]	Percentage Inhibition of Specific Binding, SERT [1] [%]	affinity/activity at 5-HT1D/1B (in words) (5-HT1D/1B receptors)	Inactivity Duration (Male Sprague-Dawley rats; [2]) [s]	Large movements Duration (Male Sprague-Dawley rats; [2]) [s]	Large movements Occurrence (Male Sprague-Dawley rats; [2])	Inactivity Duration (Male Sprague-Dawley rats; [3]) [s]	Large movements Duration (Male Sprague-Dawley rats; [3]) [s]	Large movements Occurrence (Male Sprague-Dawley rats; [3])	Inactivity Duration (Male Sprague-Dawley rats; [4]) [s]	Large movements Duration (Male Sprague-Dawley rats; [4]) [s]	Large movements Occurrence (Male Sprague-Dawley rats; [4])	Inactivity Duration (Male Sprague-Dawley rats; [5]) [s]	Large movements Duration (Male Sprague-Dawley rats; [5]) [s]	Large movements Occurrence (Male Sprague-Dawley rats; [5])	also measured
COc1cc2c(cc1OC)[C@H]1C[C@H](O)[C@@H](CC(C)C)CN1CC2 (single isomer, unassigned) [Isomer B, 3,11b-cis-dihydrotetrabenazine]	82	antagonist	56	7	potent inhibitors	0.35	86	low affinity for 5-HT1D/1B receptors; also recorded: no inhibitory activity	346.1 ± 36.9	72.0 ± 9.6	268 ± 36	566.4 ± 44.3	28.9 ± 9.2	101 ± 29	334.0 ± 23.2	87.0 ± 7.6	297 ± 22	525.8 ± 28.6	34.5 ± 6.2	125 ± 18	Inactivity Duration (Male Sprague-Dawley rats; [6]): 342.2 ± 33.3 s; Large movements Duration (Male Sprague-Dawley rats; [6]): 89.1 ± 12.4 s; Large movements Occurrence (Male Sprague-Dawley rats; [6]): 313 ± 38; Inactivity Duration (Male Sprague-Dawley rats; [7]): 530.5 ± 38.0 s; Large movements Duration (Male Sprague-Dawley rats; [7]): 31.1 ± 6.5 s; Large movements Occurrence (Male Sprague-Dawley rats; [7]): 113 ± 17; Inactivity Duration (Male Sprague-Dawley rats; [8]): 333.1 ± 26.9 s; Large movements Duration (Male Sprague-Dawley rats; [8]): 84.0 ± 11.2 s; Large movements Occurrence (Male Sprague-Dawley rats; [8]): 298 ± 37; Inactivity Duration (Male Sprague-Dawley rats; [9]): 515.0 ± 53.0 s; Large movements Duration (Male Sprague-Dawley rats; [9]): 30.9 ± 6.4 s; Large movements Occurrence (Male Sprague-Dawley rats; [9]): 120 ± 26; sedative effect (in words) (Male Sprague-Dawley rats): no sedative effects were observed; Percentage Inhibition of Specific Binding, D1 Receptor (Dopamine D1 Receptor): 1%
COc1cc2c(cc1OC)[C@H]1C[C@@H](O)[C@@H](CC(C)C)CN1CC2 (single isomer, unassigned) [Isomer C, 3,11b-cis-dihydrotetrabenazine]	59	antagonist	86	9	potent inhibitors	2.75	77	low affinity for 5-HT1D/1B receptors; also recorded: no inhibitory activity	323.7 ± 25.6	79.2 ± 10.0	285 ± 34	519.3 ± 33.7	31.4 ± 6.0	113 ± 19	324.6 ± 38.1	71.8 ± 8.3	295 ± 30	510.2 ± 44.9	30.3 ± 6.5	128 ± 24	Inactivity Duration (Male Sprague-Dawley rats; [6]): 322.7 ± 27.8 s; Large movements Duration (Male Sprague-Dawley rats; [6]): 84.0 ± 9.4 s; Large movements Occurrence (Male Sprague-Dawley rats; [6]): 308 ± 36; Inactivity Duration (Male Sprague-Dawley rats; [7]): 493.6 ± 38.5 s; Large movements Duration (Male Sprague-Dawley rats; [7]): 30.2 ± 5.5 s; Large movements Occurrence (Male Sprague-Dawley rats; [7]): 125 ± 22; Inactivity Duration (Male Sprague-Dawley rats; [8]): 368.7 ± 30.9 s; Large movements Duration (Male Sprague-Dawley rats; [8]): 66.5 ± 9.9 s; Large movements Occurrence (Male Sprague-Dawley rats; [8]): 254 ± 32; Inactivity Duration (Male Sprague-Dawley rats; [9]): 465.7 ± 49.0 s; Large movements Duration (Male Sprague-Dawley rats; [9]): 42.7 ± 8.0 s; Large movements Occurrence (Male Sprague-Dawley rats; [9]): 164 ± 30; sedative effect (in words) (Male Sprague-Dawley rats): no sedative effects were observed; hyperlocomotor effect (in words) (Male Sprague-Dawley rats; 3 hours after administration): slight and non-significant hyperlocomotor effect; Percentage Inhibition of Specific Binding, D1 Receptor (Dopamine D1 Receptor): 6%
